Experimental data from PubChem BioAssay (NCI).
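1) Cells in 96-well plates. 2) Compound, 48 h, 5 concentrations. 3) Linear interpolation between surrounding doses. 4) Unreached endpoint = highest concentration. At the GI50, growth is halved. TGI is the concentration that stops growth completely.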

Assays:
Test in all cases: NCI tumour cell line growth inhibition, 48 h
SF-539 CNS = tested on: SF-539 CNS
HOP-62 NSCLC = tested on: HOP-62 NSCLC
NCI-H23 lung = tested on: NCI-H23 lung
HCT-15 colon = tested on: HCT-15 colon
HOP-92 NSCLC = tested on: HOP-92 NSCLC
SNB-19 CNS = tested on: SNB-19 CNS
MOLT-4 leukemia = tested on: MOLT-4 leukemia
MDA-MB-231 breast = tested on: MDA-MB-231 breast
HT29 colon = tested on: HT29 colon
COLO 205 colon = tested on: COLO 205 colon

SMILES | GI50 (SF-539 CNS) [µM] | TGI (SF-539 CNS) [µM] | GI50 (HOP-62 NSCLC) [µM] | TGI (HOP-62 NSCLC) [µM] | GI50 (NCI-H23 lung) [µM] | TGI (NCI-H23 lung) [µM] | GI50 (HCT-15 colon) [µM] | TGI (HCT-15 colon) [µM] | GI50 (HOP-92 NSCLC) [µM] | TGI (HOP-92 NSCLC) [µM] | GI50 (SNB-19 CNS) [µM] | TGI (SNB-19 CNS) [µM] | GI50 (MOLT-4 leukemia) [µM] | TGI (MOLT-4 leukemia) [µM] | GI50 (MDA-MB-231 breast) [µM] | TGI (MDA-MB-231 breast) [µM] | GI50 (HT29 colon) [µM] | TGI (HT29 colon) [µM] | GI50 (COLO 205 colon) [µM] | TGI (COLO 205 colon) [µM]
CC[C@H](C)[C@H](NC(=O)c1ncccn1)C(=O)N(C)[C@H](C[C@@H](OC(C)=O)c1nc(C(=O)N[C@@H](Cc2ccccc2)C[C@H](C)C(=O)OC)cs1)C(C)C | 2.53 | 11.9 | 1.73 | > 25 | 5.4 | > 25 | 1.39 | > 25 | 4.36 | > 25 | 2.32 | > 25 | 2.39 | > 25 | 1.4 | 10.9 | 0.893 | > 25 | 1.01 | 4.97
COc1ccc(-c2c(NC(=O)Nc3ccc(Cl)c(C(F)(F)F)c3)cnn2-c2ccc(S(N)(=O)=O)cc2)cc1 | 3.06 | 9.9 | 4.07 | 16.1 | 3.14 | 12.4 | 3.63 | 14.4 | 2.02 | 7.32 | 3.85 | 14.7 | 2.01 | 5.97 | 2.04 | 4.72 | 3.59 | 10.9 | 2.31 | 5.31
C=C[C@@H]1CCC/C=C/[C@@H]2C[C@H](O)C[C@H]2[C@H](O)/C=C/C(=O)O1 | 0.65 | > 100 | 1.33 | > 100 | 0.475 | 16.6 | 2.23 | > 100 | 0.702 | 5.95 | 1.45 | > 100 | 1.16 | > 31.4 | 0.379 | 1.11 | 0.342 | 1.6 | 0.224 | 0.441
C/C(COc1ccc2oc(-c3ccccc3)cc(=O)c2c1)=N\O | 2.1 | 5.8 | 69.4 | > 100 | 88.5 | > 100 | 7.87 | > 100 | 37.4 | > 100 | 26.7 | > 100 | 89.2 | > 100 | 14.1 | 36.4 | 22.7 | > 100 | 11.8 | 52.9
FC(F)(F)c1cccc(Oc2ccc(Nc3ncnc4ccc(OCCCN5CCOCC5)cc34)cc2Cl)c1 | 1.86 | 3.33 | 2.33 | 5.18 | 3.19 | 13.4 | 1.48 | 3.16 | 1.76 | 7.82 | 2.34 | 7.15 | 1.97 | 6.41 | 1.8 | 3.72 | 1.75 | 3.93 | 2 | 4.47
COC(=O)[C@@H](C)C[C@H](Cc1ccc(F)cc1)NC(=O)c1csc([C@@H](C[C@H](C(C)C)N(C)C(=O)[C@@H](NC(=O)[C@H]2CCCCN2C)C2CC2)OC(C)=O)n1 | 0.408 | 1.49 | 0.559 | > 25 | 1.14 | > 25 | 0.828 | > 25 | 0.917 | > 12.8 | 0.164 | > 25 | 0.338 | > 25 | 0.315 | 1.65 | 0.107 | > 25 | 0.184 | 1.47
O=c1oc2ccc(F)cc2c(=O)n1-c1ccc(I)cc1F | 0.42 | 5.17 | 0.916 | 14.9 | 0.311 | 1.59 | 0.471 | 10.9 | 0.206 | 0.577 | 0.409 | > 54.3 | 1.07 | 3.65 | 0.614 | 3.61 | 3.29 | > 33 | 2.67 | 8.82
COc1cc(OCCCN2CCCC2)ccc1Nc1ncc(Cl)c(Nc2ccccc2P(C)(C)=O)n1 | 3.49 | 12.8 | 2.11 | 12.5 | 1.98 | 13.2 | 3.67 | > 46.6 | 0.163 | 1.25 | 4.11 | 34.3 | 3.95 | 26 | 1.56 | 11.7 | 0.521 | 3.79 | 1.08 | 2.81
N#Cc1c(N)c(C(=O)c2ccc3c(c2)OCCO3)n2c1CCCC2 | 2.38 | 7.63 | 3.48 | > 100 | 4.64 | > 100 | 1.04 | > 100 | 2.33 | > 100 | 6.3 | > 100 | 4.19 | > 100 | 6.47 | > 100 | 2.23 | > 100 | 1.82 | > 23.5
